Broadly, the half-life is the time in which the quantity being followed falls by half. Usually GI50 stands for the concentration at which growth is held to half of that of the control. The low end stands for greater sensitivity of the cells, the high end for lower sensitivity of the cells. The IC50 is the midpoint of a concentration-inhibition curve.

Data set [1] deals with SU-DHL-6. The data set is described as follows: Induction of apoptosis in human SU-DHL-6 cells assessed as late apoptotic cells at 1 uM incubated for 48 hrs by Annexin V-FITC/PI staining based flow cytometric analysis (reference value: 4.12 %). The class given is functional. A general note: A flow cytometer gives signals particle by particle.
Data set [2] in a line: Selectivity ratio of GI50 for human HCT-116 cells to GI50 for PI3Kdelta overexpressing human SU-DHL-6. The class given is functional.
Data set [3] concerns the target T1, Phosphatidylinositol 4,5-bisphosphate 3-kinase catalytic subunit delta isoform (Homo sapiens) (UniProt O00329).
T1 sequence (whole entry): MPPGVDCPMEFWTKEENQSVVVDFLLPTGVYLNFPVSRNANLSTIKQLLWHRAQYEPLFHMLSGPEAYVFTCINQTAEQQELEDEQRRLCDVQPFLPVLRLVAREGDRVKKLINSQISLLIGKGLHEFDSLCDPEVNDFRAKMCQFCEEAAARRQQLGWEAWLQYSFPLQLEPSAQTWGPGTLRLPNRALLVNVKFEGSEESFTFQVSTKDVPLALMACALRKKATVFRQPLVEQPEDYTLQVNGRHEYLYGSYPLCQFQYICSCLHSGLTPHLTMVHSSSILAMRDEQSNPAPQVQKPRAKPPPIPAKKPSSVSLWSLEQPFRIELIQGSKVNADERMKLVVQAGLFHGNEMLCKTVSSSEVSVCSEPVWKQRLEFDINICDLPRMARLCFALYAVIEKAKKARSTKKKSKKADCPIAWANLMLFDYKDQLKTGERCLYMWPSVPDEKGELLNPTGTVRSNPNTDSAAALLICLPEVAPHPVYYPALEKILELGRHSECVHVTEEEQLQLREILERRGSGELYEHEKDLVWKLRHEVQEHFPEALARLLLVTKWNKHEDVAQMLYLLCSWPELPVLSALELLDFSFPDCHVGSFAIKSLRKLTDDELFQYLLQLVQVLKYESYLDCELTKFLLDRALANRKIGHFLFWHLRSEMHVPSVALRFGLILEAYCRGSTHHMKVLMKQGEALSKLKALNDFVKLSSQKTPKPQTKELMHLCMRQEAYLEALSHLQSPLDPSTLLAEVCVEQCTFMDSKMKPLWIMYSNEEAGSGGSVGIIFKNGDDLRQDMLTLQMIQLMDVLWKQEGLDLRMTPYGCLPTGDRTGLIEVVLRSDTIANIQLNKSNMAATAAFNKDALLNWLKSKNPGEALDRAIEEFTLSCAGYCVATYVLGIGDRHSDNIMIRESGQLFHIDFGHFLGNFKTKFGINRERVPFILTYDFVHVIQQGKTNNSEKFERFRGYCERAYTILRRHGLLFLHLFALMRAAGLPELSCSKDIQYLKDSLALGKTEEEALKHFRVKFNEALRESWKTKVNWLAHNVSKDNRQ
In words: Binding affinity to PI3Kdelta in human SU-DHL-6 cells preincubated for 1 hrs followed by (S)-phenyl 5-(4-((1-(1-(3-azidopropanoyl)piperidine-4-carbonyl)pyrrolidin-3-yl)amino)pyrido[3,2-d]pyrimidin-6-yl)-2-methoxynicotinate addition and measured after 2 hrs by DBCO-Cy3 based SDS-PAGE analysis. The class given is cell-based. Conditions: time 3.0 hrs.

A short description of data set [4]: Stability of compound in water/acetonitrile solution incubated for 24 hrs by HPLC analysis. The class given is physicochemical. The conditions noted are these: buffer.
Data set [5] in a line: Chemical reactivity of the compound with N-Boc-Lysine assessed as half-life at 1 uM by HPLC analysis. Conditions: incubation with N-Boc-Lysine. The class given is physicochemical.
For data set [6], the system named is SU-DHL-6. In words: Induction of apoptosis in human SU-DHL-6 cells assessed as necrotic cells at 0.1 uM incubated for 48 hrs by Annexin V-FITC/PI staining based flow cytometric analysis (reference value: 1.05 %). The class given is functional.
Data set [7] has as its system SU-DHL-6. In words: Antitumor activity against human SU-DHL-6 cells xenografted in male nude mouse assessed as reduction in Ki67 expression in tumor at 5 to 30 mg/kg/day, po administered for 14 days by immunohistochemical staining based analysis. The class given is functional, organism-based. The conditions noted are these: dose 5-30 mg/kg/day, time 14.0 day. (In xenograft studies the graft and the host belong to different species.)

The target of data set [8] is T1, Phosphatidylinositol 4,5-bisphosphate 3-kinase catalytic subunit delta isoform (Homo sapiens). The data set is described as follows: Induction of thermal stabilization of PI3Kdelta in human SU-DHL-6 cells at 1 uM preincubated for 30 mins followed by incubated under 40 to 75 degreeC for 3 mins by CETSA. The conditions noted are these: time 33.0 min. The class given is cell-based.

Data set [9] can be described thus: Growth inhibition of PI3Kdelta-overexpressing human Pfeiffer cells incubated for 72 hrs by MTT assay. The class given is functional. (Formazan colour is commonly taken as a measure of viable cells.)
The subject of data set [10] is SU-DHL-6. In words: Antitumor activity against human SU-DHL-6 cells xenografted in male nude mouse assessed as tumor growth inhibition at 30 mg/kg/day, po administered for 14 days relative to control. The class given is functional. The conditions noted are these: SU-DHL-6, 336 h, time 14 day, read-out: TGI.
The target of data set [11] is T2, Phosphatidylinositol 4,5-bisphosphate 3-kinase catalytic subunit delta isoform (Homo sapiens, UniProt O00329).
T2 sequence (O00329 whole entry): T1 sequence (whole entry)
The data set is described as follows: Inhibition of recombinant PI3Kdelta (unknown origin) using PIP2:3PS as substrate preincubated for 20 mins followed by ATP addition and measured after 1 hrs by ADP-Glo reagent based assay.

A short description of data set [12]: Selectivity index, ratio of IC50 for inhibition of recombinant PI3Kalpha (unknown origin) using PIP2:3PS as substrate to IC50 for inhibition of recombinant PI3Kdelta (unknown origin) using PIP2:3PS as substrate.
Another data set has as its system Mus musculus. The data set is described as follows: In vivo inhibition of PI3K signaling pathway in male nude mouse xenografted with human SU-DHL-6 cells assessed as reduction in AKT phosphorylation in tumor at 5 to 30 mg/kg/day, po administered for 14 days by Western blot analysis. The class given is functional, organism-based. Conditions: dose 5-30 mg/kg/day, time 14.0 day.

In data set [13] the target is T2, Phosphatidylinositol 4,5-bisphosphate 3-kinase catalytic subunit delta isoform. The data set is described as follows: Covalent inhibition of PI3Kdelta (unknown origin) using PIP2:3PS as substrate assessed as inhibition constant incubated upto 180 mins in presence of ATP by ADP-Glo reagent based assay.
The subject of data set [14] is Pfeiffer. In words: Antitumor activity against human Pfeiffer cells xenografted in male nude mouse assessed as tumor growth inhibition at 30 mg/kg/day, po administered for 14 days relative to control. The class given is functional. Conditions: 336 h, time 14 day, read-out: TGI.
Data set [15] concerns SU-DHL-6. In words: Induction of cell cycle arrest in human SU-DHL-6 cells assessed as increase in G0/G1 phase cells incubated for 24 hrs by PI staining based flow cytometric analysis. The class given is functional. The conditions noted are these: dose 1-100 nM.
For data set [16], the system named is SU-DHL-6. In words: Inhibition of AKT phosphorylation in human SU-DHL-6 cells incubated for 24 hrs by Western blot analysis. The class given is cell-based. The conditions noted are these: dose 10-1000 nM.
Data set [17] has as its target Phosphatidylinositol 4,5-bisphosphate 3-kinase catalytic subunit gamma isoform (Homo sapiens, UniProt P48736). The data set is described as follows: Inhibition of recombinant PI3Kgamma (unknown origin) using PIP2:3PS as substrate preincubated for 20 mins followed by ATP addition and measured after 1 hrs by ADP-Glo reagent based assay.
Data set [18] relates to Pfeiffer. In words: Antitumor activity against human Pfeiffer cells xenografted in male nude mouse assessed as tumor growth inhibition at 5 mg/kg/day, po administered for 14 days relative to control. The class given is functional. Conditions: 336 h, time 14 day, read-out: TGI.
Data set [19] in a line: Stability of compound in PBS at pH 7.4 incubated for 24 hrs at 37 degreeC by HPLC analysis. The conditions noted are these: buffer, pH 7.4, 24 h. The class given is physicochemical.
Data set [20] has as its target T1, Phosphatidylinositol 4,5-bisphosphate 3-kinase catalytic subunit delta isoform (Homo sapiens). In words: Covalent inhibition of PI3Kdelta (unknown origin) using PIP2:3PS as substrate assessed as second order rate constant (Kinact/Ki ratio) incubated upto 180 mins in presence of ATP by ADP-Glo reagent based assay.
For data set [21], the system named is SU-DHL-6. The data set is described as follows: Induction of apoptosis in human SU-DHL-6 cells assessed as late apoptotic cells at 0.01 uM incubated for 48 hrs by Annexin V-FITC/PI staining based flow cytometric analysis (reference value: 4.12 %). The class given is functional.

Calls of active or inactive are those of the source. The rule behind the calls is not given here. Where only a bound is given, the exact number is not on record here.

Sequence of Phosphatidylinositol 4,5-bisphosphate 3-kinase catalytic subunit gamma isoform (P48736 whole entry, canonical isoform): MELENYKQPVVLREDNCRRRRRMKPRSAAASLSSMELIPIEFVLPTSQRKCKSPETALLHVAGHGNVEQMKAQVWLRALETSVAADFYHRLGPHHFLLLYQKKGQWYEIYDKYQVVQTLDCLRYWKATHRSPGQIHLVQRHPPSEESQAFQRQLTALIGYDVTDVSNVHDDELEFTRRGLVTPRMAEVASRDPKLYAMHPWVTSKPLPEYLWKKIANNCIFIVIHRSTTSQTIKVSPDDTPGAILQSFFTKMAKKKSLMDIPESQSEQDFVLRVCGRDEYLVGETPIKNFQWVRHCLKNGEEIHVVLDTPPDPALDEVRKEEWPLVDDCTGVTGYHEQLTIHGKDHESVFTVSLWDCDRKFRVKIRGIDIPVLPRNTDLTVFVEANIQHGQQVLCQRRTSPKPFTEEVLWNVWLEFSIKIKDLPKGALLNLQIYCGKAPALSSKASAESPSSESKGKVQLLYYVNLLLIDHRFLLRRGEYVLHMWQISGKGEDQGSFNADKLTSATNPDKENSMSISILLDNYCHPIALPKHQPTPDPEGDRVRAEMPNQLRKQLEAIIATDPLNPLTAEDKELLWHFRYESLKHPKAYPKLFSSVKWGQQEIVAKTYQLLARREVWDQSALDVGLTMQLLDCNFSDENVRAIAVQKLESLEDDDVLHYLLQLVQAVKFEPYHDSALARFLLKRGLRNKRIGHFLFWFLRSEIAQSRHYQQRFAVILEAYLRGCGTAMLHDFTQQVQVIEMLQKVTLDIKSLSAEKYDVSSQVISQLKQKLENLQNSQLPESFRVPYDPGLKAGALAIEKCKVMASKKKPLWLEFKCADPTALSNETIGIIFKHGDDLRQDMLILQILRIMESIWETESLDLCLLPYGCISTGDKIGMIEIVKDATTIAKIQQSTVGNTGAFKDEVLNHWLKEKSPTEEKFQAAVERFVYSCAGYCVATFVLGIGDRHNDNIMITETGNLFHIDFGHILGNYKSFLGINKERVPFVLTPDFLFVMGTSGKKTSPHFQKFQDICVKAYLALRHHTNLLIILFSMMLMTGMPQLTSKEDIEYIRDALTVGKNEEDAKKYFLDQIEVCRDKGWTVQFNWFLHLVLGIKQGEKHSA

Consider `COc1ncc(-c2ccc3ncnc(N[C@H]4CCN(C(=O)C5CCOCC5)C4)c3n2)cc1C(=O)Oc1ccccc1`, for which the Activity in the data set with SU-DHL-6 [1] is 20.35%; in the data set with SU-DHL-6 [6], 0.92%; with SU-DHL-6 [15], “Dose-Dependent Effect”; in the data set on SU-DHL-6 [21], 4.19%. The RatioGI50 in data set [2] is recorded as 2500. The outcome (in data set [3]; with SU-DHL-6 [7]; in data set [8]) was Active. For the same compound, the Stability result in [4] and in [19] was “Stable” each time. Further, the half-life at 1 µM in data set [5] stood at 2.82 h. The compound also gave a GI50 in data set [9] of 102 nM. For the same compound, the inhibition in vivo at 30 mg/kg/day is 95% with SU-DHL-6 [10] and 61% with Pfeiffer [14]. The results for the IC50 in data set [11] and in data set [17] were 0.27 nM and 94 nM, respectively. Moreover, the Ratio IC50 in data set [12] is greater than 1000. Moreover, the inhibition result in the data set with Mus musculus was “Active”. Moreover, the Ki in [13] is 1.85 nM. The inhibition entry with SU-DHL-6 [16] is “Dose-Dependent Effect”. Also, the inhibition in vivo at 5 mg/kg/day with Pfeiffer [18] came to 44%. In addition, in data set [20], the Ratio was 1.76 10^5/M/s.
